Test results as given in publication PMC5986797, “Laminin heparin-binding peptides bind to several growth factors and enhance diabetic wound healing” (Nature Communications, 2018).
pKd: −log10 of the molar value. Entries after “also recorded” stand apart in the source; their conditions may differ.

Tests used:
[1] = test system: GF (VEGF-A165, PlGF-2, FGF-2) binding to laminin; experiment: Inhibition of laminin–GF binding by heparin (ELISA); design: species or system human; settings: 10 µM heparin; 10 µg/mL laminin coated; 1 μg/mL VEGF-A165, PlGF-2 or FGF-2; n = 4
Method: ELISA plates (med-binding) were coated with 10 μg/mL laminin isoforms (–111, –211, –221, –411, –421, –511, and –521) in PBS for 2 h at 37 °C. Then, wells were blocked with 2% BSA-containing PBS-T and further incubated with 1 μg/mL each of VEGF-A165, PlGF-2, or FGF-2 for 60 min at RT with 10 μM heparin. Next, the wells were incubated with biotinylated anti-VEGF (R&D Systems, Catalog No. DY293B, 1:60 dilution), anti-PlGF (R&D Systems, Catalog No. DY264, 1:180 dilution), or anti-FGF-2 (R&D Systems, Catalog No. DY233, 1:60 dilution) antibodies. The antibodies were detected by streptavidin-HRP (R&D Systems).

[2] = test system: GF; experiment: ELISA: GF binding to laminin peptides, stated for the tested GFs together; design: species or system human; settings: 10 µg/mL laminin peptide coated, 1 μg/mL GF, n = 4
[3] = test system: recombinant human syndecan-1, syndecan-2, syndecan-3, and syndecan-4; experiment: ELISA: syndecan binding to laminin peptides; design: key to Interaction with Syndecan: ++ indicates high affinities; + indicates medium/low affinities; settings: for binding to syndecans 1–4 (ELISA): 10 µg/mL laminin peptide coated (legend; method 1 μg/mL), 1 μg/mL histidine-tagged syndecan, vs BSA-coated wells, n = 8; for Interaction with Syndecan: summary table
Method: ELISA tests were performed as described above. […] A concentration of 1 μg/mL of BSA served as non-binding protein control. After blocking with 2% BSA PBS-T solution, 1 μg/mL of the recombinant human syndecan-1, syndecan-2, syndecan-3, and syndecan-4 (all syndecan proteins are histidine-tagged; SinoBiological) were added. Bound GF was detected with anti-histidine tag antibody (BioLegend, Catalog No. 562504, 1:1000 dilution).

[4] = ELISA: biotinylated heparin binding to laminin peptides; design: key to Interaction with Heparin: ++ indicates high affinities; + indicates medium/low affinities; settings: for binding to heparin (ELISA): 10 µg/mL laminin peptide coated (legend; method 1 μg/mL), 10 µg/mL biotinylated heparin, vs BSA-coated wells, n = 4; for Interaction with Heparin: summary table
Method: (§1) ELISA tests were performed as described above. In brief, […] recombinant protein, laminin alpha 4 LG domain recombinant protein (R&D Systems), laminin alpha 5 LG domain recombinant protein (LD BioPharma), or laminin peptide (sequences are described in Supplementary Table 1, chemically synthesized by Genscript) in PBS for 2 h at 37 °C. A concentration of 1 μg/mL of BSA served as non-binding protein control. After blocking with 2% BSA PBS-0.05% Tween 20 (PBS-T) solution, 1 μg/mL of the recombinant human proteins (VEGF-A121, VEGF-A165, PlGF-1, PlGF-2, PDGF-BB, or FGF-2) or 10 μg/mL of biotinylated heparin (Sigma-Aldrich) were added. Bound GF was detected with biotinylated antibodies for human VEGF-A, PlGF, PDGF-BB (R&D Systems, Catalog No. DY220, 1:180 dilution), or FGF-2 (R&D Systems). The antibodies were detected by streptavidin-HRP (R&D Systems).

[5] = test system: GF; experiment: ELISA: GF binding to laminin peptides, stated for the tested GFs together; design: species or system human; key: ++ indicates high affinities; + indicates medium/low affinities; settings: summary table
Method: (§2) ELISA tests were performed as described above. In brief, ELISA plates were coated with 1 μg/mL of laminin alpha 3 LG domain recombinant protein, laminin alpha 4 LG domain recombinant protein (R&D Systems), laminin alpha 5 LG domain recombinant protein (LD BioPharma), or laminin peptide (sequences are described in Supplementary Table 1, chemically synthesized by Genscript) in PBS for 2 h at 37 °C. A concentration of 1 μg/mL of BSA served as non-binding protein control. After blocking with 2% BSA PBS-0.05% Tween 20 (PBS-T) solution, 1 μg/mL of the recombinant human proteins (VEGF-A121, VEGF-A165, PlGF-1, PlGF-2, PDGF-BB, or FGF-2) or 10 μg/mL of biotinylated heparin (Sigma-Aldrich) were added. Bound GF was detected with biotinylated antibodies for human VEGF-A, PlGF, PDGF-BB (R&D Systems, Catalog No. DY220, 1:180 dilution), or FGF-2 (R&D Systems). The antibodies were detected by streptavidin-HRP (R&D Systems).

[6] = target: PDGF-BB; experiment: SPR: laminin-521 against PDGF-BB; type: binding, human; settings: laminin-521 immobilized (~2000 RU) on C1 chip, GF flown over, Langmuir fit
Method: (§3) SPR measurements were made with a Biacore 3000 SPR system (GE Healthcare). Laminin-521 or laminin LAMA3_2928–3150 was immobilized via amine coupling on a C1 chip (GE Healthcare) for ~2000 or ~1000 resonance units (RU), respectively, according to the manufacturer’s instructions. VEGF-A165, PDGF-BB, or PlGF-2 was flown at increasing concentrations in the running buffer (0.01 M HEPES, pH 7.4, 0.15 M NaCl, and 0.005% v/v surfactant P20) at 20 μL/min. The sensor chip was regenerated with 50 mM NaOH for every cycle. Specific bindings of GFs to laminin were calculated by comparison to a non-functionalized channel used as a reference. Experimental results were fitted with Langmuir binding kinetics using BIAevaluation software (GE Healthcare).

[7] = target: PlGF-2; experiment: SPR: laminin-521 against PlGF-2; type: binding, human; settings: laminin-521 immobilized (~2000 RU) on C1 chip, GF flown over, Langmuir fit
Method: as §3

[8] = test system: PDGF-BB; experiment: ELISA: PDGF-BB binding to laminin LG domain / laminin peptide; design: species or system human; settings: 10 µg/mL laminin peptide coated (legend; method 1 μg/mL); 1 μg/mL GF; vs BSA-coated wells; n = 4
Method: as §2

[9] = test system: human lung fibroblasts; experiment: Cell adhesion assay, fibroblasts; type: cell-based; design: key to Cell adhesion Fibroblast: ++ indicates high affinities; + indicates medium/low affinities; settings: for Cell adhesion Fibroblast: summary table; for fibroblast attachment on peptide-coated surfaces: without EDTA, 1 μg/mL peptide coated, 3000 cells/well, 30 min, 37 °C, FGM-2, 1% FBS, CyQUANT, vs BSA, n = 10
Method: (§4) A total of 96-well plates (non-tissue culture treated, Greiner Bio-One) were pre-coated with 1 μg/mL with laminin HBD peptides in PBS for 2 h at 37 °C, followed by blocking with 2% BSA PBS for 1 h at RT. Cell adhesion assays were performed using human lung fibroblasts (Lonza) in FGM-2 medium (Lonza) or human umbilical vein endothelial cells (HUVEC; Lonza) in EGM-2 medium (Lonza) supplemented with 1% fetal bovine serum (FBS) and 100 µg/mL VEGF-A165, with or without 5 mM EDTA (Sigma-Aldrich). Cells were plated at 3000 cells/well on laminin peptide pre-coated plates and incubated for 30 min at 37 °C, 5% CO2. Then, the medium was removed, and wells were quickly washed three times with PBS. Cell numbers were quantified using a CyQUANT assay, according to the manufacturer’s instructions (Invitrogen). All cell lines were checked for mycoplasma contamination and used in passages from 5 to 8.

[10] = test system: HUVEC cells; experiment: Migration assay (transwell); type: cell-based, human; settings: 0.1 μM peptide, in the presence and absence of 30 ng/mL VEGF-A165; 6 h; n = 4
Method: A QCM 24-Well Colorimetric Cell Migration Assay Kit was used to perform migration assay. Both sides of inserts were coated with 0.1 μM of bovine collagen I (C4243, Sigma-Aldrich) for 1 h at 37 °C. Then, the inserts were washed with water, dried in a laminar flow cabinet, and disposed on 24-well cell culture plate covers. Solutions containing 30 ng/mL of VEGF-A165 preincubated with or without 0.1 μM of LAMA3_3043–3067 peptide in a medium (MCDB-131, 0.05% BSA) were added to the bottom side of the transwell (500 μL/well). Directly thereafter, HUVEC cells (Lonza) in a medium containing 0.05% BSA (300 μL/transwell, 4 × 10^4 cells/transwell) were added to the transwell upper parts. After 6 h, migrated cells were stained and absorbance at 560 nm was measured according to the manufacturer’s instructions.

[11] = test system: human umbilical vein endothelial cells (HUVEC); experiment: Cell adhesion assay, HUVEC; type: cell-based; design: key to Cell adhesion HUVEC: ++ indicates high affinities; + indicates medium/low affinities
Method: as §4, with “Cell adhesion assays were performed using human lung fibroblasts (Lonza) in FGM-2 medium (Lonza) or human umbilical vein endothelial cells (HUVEC; Lonza) in EGM-2 medium (Lonza) supplemented with 1% fetal bovine serum (FBS) and 100 µg/mL VEGF-A165, with or without 5 mM EDTA (Sigma-Aldrich).” left out

[12] = test system: VEGF-A165; experiment: ELISA: VEGF-A165 binding to laminin LG domain / laminin peptide; design: species or system human; settings: 10 µg/mL laminin peptide coated (legend; method 1 μg/mL); 1 μg/mL GF; vs BSA-coated wells; n = 4
Method: as §1

[13] = test system: PlGF-2; experiment: ELISA: PlGF-2 binding to laminin LG domain / laminin peptide; design: species or system human; settings: 10 µg/mL laminin peptide coated (legend; method 1 μg/mL); 1 μg/mL GF; vs BSA-coated wells; n = 4
Method: as §2

[14] = test system: FGF-2; experiment: ELISA: FGF-2 binding to laminin LG domain / laminin peptide; design: species or system human; settings: 10 µg/mL laminin peptide coated (legend; method 1 μg/mL); 1 μg/mL GF; vs BSA-coated wells; n = 4
Method: as §2

Substance | binding to the tested GFs (ELISA) [2] | binding to syndecans 1–4 (ELISA) [3] | binding to heparin (ELISA) [4] | Interaction with GF [5] | binding to PDGF-BB (ELISA), peptides [8] | Cell adhesion Fibroblast [9] | fibroblast attachment on peptide-coated surfaces [9] | Interaction with Syndecan [3] | Interaction with Heparin [4] | binding to VEGF-A165 (ELISA), peptides [12] | binding to PlGF-2 (ELISA), peptides [13] | binding to FGF-2 (ELISA), peptides [14] | other results
heparin |  |  |  |  |  |  |  |  |  |  |  |  | inhibition of GF binding to laminin by excess heparin [1]: inhibited
TLPDVGLELEVR [LAMA5_3539–3550, chemically synthesized human laminin LAMA5 LG5 peptide, 12 aa] | significantly bound to all tested GFs | did not show binding | did not show binding to heparin; also recorded: do not show heparin binding | + |  |  |  |  |  |  |  |  | 
laminin-521: recombinant human full-length laminin isoform (BioLamina) |  |  |  |  |  |  |  |  |  |  |  |  | pKd [6]: 7.62; pKd [7]: 7.89
RLVFALGTDGKKLRIKSKEKCNDGK [LAMA3_3043–3067, chemically synthesized human laminin LAMA3 LG4 HBD peptide, 25 aa] |  | significant binding | bound to heparin | ++ | bound | ++ | enhancement of fibroblast attachment | ++ | ++ | bound | bound | bound | degree of migration of HUVEC cells, peptide [10]: did not increase the degree of cell migration; HUVEC attachment in the presence of EDTA ([11]; 5 mM EDTA, 1 μg/mL peptide coated, 3000 cells/well, 30 min, 37 °C, CyQUANT, n = 10): even in the presence of EDTA; Cell adhesion HUVEC ([11]; summary table): ++; HUVEC attachment on peptide-coated surfaces ([11]; without EDTA, 1 μg/mL peptide coated, 3000 cells/well, 30 min, 37 °C, 100 ng/mL VEGF-A165, 1% FBS, CyQUANT, n = 10): promoted HUVEC attachment
ARKASRRSRQPARH [LAMA5_3312–3325, chemically synthesized human laminin LAMA5 linker peptide, 14 aa, subdomain of LAMA5_3300–3330] | did not show particular binding to any tested GF | weak binding | did not bind to heparin |  |  |  |  | + |  |  |  |  | 
RQRSRPGRWHKVSVRWEKNR [LAMA5_3417–3436, chemically synthesized human laminin LAMA5 LG4 peptide, 20 aa] |  | significant binding | bound to heparin | ++ | bound | + | enhancement of fibroblast attachment | ++ | ++ | bound | bound | bound | 
